Results reported in BindingDB's records for doi:10.1016/j.bioorg.2016.12.002 (China Pharmaceutical University, 2017).

Molecular target: Hepatocyte growth factor receptor/Proto-oncogene tyrosine-protein kinase receptor Ret (Homo sapiens, UniProt P07949+P08581)
Experiment: In Vitro c-Met Enzyme Assay
Description: The c-Met kinase activity as tested with enzyme-linked immunosorbent assays (ELISAs) as previously reported protocol [Qiang et al., Bioorg. Med. Chem., 24:3353-3358; Shi et al., Bioorg. Med. Chem., 22:4735-4744]. Briefly, reaction cocktail containing c-met kinase and various concentrations of measured compound or 0.1% DMSO (negative control) was incubated at 37 °C for five minutes. Then the mixture of ATP and substrate peptide was added and incubated for another 30 min. Afer that, the reaction was terminated and transferred into a pre-coated 96-well plate, and incubated for another 1 h at 37 °C. Phosphate-buffered saline (PBS) containing 0.1% Tween 20 (T-PBS) was applied to wash the plate three times. anti-phosphotyrosine (PY99) antibody was then added. Horseradish peroxidase-conjugated goat anti-mouse IgG was added after 30 min. Finally, the plate was analyzed with multi-well spectrophotometer at […].

Hepatocyte growth factor receptor/Proto-oncogene tyrosine-protein kinase receptor Ret, sequence (P08581 whole entry): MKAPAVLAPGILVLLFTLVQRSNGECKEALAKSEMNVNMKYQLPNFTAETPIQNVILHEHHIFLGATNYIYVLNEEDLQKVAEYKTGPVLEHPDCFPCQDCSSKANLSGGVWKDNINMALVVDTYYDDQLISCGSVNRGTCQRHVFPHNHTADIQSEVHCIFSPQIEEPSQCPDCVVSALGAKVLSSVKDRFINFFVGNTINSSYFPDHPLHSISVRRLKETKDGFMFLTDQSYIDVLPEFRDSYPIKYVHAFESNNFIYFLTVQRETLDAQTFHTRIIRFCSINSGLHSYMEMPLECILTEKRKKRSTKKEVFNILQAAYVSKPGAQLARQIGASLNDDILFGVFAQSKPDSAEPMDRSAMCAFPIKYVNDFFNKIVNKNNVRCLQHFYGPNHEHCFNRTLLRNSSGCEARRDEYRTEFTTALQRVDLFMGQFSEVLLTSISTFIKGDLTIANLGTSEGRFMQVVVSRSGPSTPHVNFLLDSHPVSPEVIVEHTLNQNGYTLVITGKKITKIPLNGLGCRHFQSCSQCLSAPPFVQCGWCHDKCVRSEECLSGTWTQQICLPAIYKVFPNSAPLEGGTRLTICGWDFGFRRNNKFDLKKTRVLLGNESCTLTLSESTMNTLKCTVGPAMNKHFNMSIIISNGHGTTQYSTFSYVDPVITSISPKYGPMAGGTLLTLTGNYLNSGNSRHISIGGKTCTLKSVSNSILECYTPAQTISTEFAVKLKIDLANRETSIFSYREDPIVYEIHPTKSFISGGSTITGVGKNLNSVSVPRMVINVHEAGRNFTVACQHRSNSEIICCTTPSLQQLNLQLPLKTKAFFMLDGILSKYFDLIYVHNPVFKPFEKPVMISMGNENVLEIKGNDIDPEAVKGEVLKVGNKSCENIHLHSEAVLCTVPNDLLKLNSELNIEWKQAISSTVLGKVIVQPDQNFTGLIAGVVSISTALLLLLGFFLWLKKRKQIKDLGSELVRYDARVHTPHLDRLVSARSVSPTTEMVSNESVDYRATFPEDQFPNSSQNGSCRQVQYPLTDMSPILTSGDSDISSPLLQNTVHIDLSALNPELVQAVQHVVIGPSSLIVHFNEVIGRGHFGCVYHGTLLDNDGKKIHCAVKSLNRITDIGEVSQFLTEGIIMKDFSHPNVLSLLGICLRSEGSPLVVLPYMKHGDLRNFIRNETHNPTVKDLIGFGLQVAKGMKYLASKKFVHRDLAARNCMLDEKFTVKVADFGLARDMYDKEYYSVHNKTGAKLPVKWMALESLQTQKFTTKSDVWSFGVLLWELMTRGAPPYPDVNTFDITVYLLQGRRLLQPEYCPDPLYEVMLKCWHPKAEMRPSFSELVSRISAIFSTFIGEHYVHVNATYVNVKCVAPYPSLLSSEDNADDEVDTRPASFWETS
Hepatocyte growth factor receptor/Proto-oncogene tyrosine-protein kinase receptor Ret, sequence (P07949 whole entry): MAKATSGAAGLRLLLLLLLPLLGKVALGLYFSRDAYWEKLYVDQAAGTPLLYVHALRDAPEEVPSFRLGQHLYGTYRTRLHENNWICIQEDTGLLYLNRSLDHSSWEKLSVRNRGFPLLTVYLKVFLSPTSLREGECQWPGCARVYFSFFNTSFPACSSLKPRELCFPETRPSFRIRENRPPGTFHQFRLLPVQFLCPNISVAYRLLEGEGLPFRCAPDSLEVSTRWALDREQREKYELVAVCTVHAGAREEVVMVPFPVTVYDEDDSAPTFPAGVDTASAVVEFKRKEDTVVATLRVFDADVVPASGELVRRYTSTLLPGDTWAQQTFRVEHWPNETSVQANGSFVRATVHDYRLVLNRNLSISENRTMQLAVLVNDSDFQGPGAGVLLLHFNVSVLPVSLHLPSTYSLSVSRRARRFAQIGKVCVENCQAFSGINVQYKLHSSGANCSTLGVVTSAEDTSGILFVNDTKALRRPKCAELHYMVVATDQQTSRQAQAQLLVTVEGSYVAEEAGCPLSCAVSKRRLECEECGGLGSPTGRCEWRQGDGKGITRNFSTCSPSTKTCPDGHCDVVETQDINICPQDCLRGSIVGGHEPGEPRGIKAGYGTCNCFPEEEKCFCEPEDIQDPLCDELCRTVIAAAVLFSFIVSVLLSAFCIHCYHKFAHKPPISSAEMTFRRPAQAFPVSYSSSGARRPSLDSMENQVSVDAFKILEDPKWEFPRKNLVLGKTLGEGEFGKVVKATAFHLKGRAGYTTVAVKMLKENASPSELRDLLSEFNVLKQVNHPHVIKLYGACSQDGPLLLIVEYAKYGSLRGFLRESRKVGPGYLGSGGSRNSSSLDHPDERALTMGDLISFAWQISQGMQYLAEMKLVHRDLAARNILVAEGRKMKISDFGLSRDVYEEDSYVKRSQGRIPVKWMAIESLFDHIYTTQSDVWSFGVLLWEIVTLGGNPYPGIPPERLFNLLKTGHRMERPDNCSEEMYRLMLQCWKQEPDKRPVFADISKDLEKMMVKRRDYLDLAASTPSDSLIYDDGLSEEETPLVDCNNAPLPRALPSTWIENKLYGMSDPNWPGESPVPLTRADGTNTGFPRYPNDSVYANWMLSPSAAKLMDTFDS

Row | IC50 [µM] | Compound
1 | 12.2 | Clc1ccc(-c2cn3cccc(COc4nnc5ccc(Cl)nn45)c3n2)c(Cl)c1 [6-Chloro-3-((2-(2,4-dichlorophenyl)imidazo[1,2-a]pyridin-8-yl)methoxy)-[1,2,4]triazolo[4,3-b] pyridazine (7g)]
2 | 12.3 | Clc1ccc(Cl)c(-c2cn3cccc(COc4nnc5ccc(Cl)nn45)c3n2)c1 [6-chloro-3-((2-(2,5-dichlorophenyl)imidazo[1,2-a]pyridin-8-yl)methoxy)-[1,2,4]triazolo[4,3-b] pyridazine (7e)]
3 | 0.06 | COc1ccc2c(OCc3nnc4ccc(-c5ccccc5)nn34)ccnc2c1 [7-methoxy-4-({6-phenyl-[1,2,4]triazolo[4,3-a]pyridazin-3-yl}methoxy)quinoline]
